Reference: patent US7238716B2, “Alkanoic acid derivatives process for their production and use thereof” (Takeda Pharmaceuticals Company Limited, priority 2000, dated 2007)

**Q.** Which melting point does the source give for Cc1oc(-c2ccccc2)nc1COc1ccc(COc2ccc(OCc3ccccc3)cc2CC(=O)O)cc1 [Example 27, 2-[5-benzyloxy-2-[4-[(5-methyl-2-phenyl-4-oxazolyl)methoxy]benzyloxy]phenyl]acetic acid] here?
**A.** Its melting point is 140 to 141 °C.

**Q.** Which melting point does the source give for Cc1oc(-c2ccccc2)nc1COc1cccc(COc2ccccc2CC(=O)O)c1 [Example 31, 2-[2-[3-[(5-methyl-2-phenyl-4-oxazolyl)methoxy]benzyloxy]phenyl]acetic acid] here?
**A.** Its melting point is 117 to 118 °C.

**Q.** For CCOC(=O)CCc1ccc(OCc2ccc(OCc3nc(-c4ccccc4)oc3C)cc2)cc1OCC [Example 65, ethyl 3-[2-ethoxy-4-[4-[(5-methyl-2-phenyl-4-oxazolyl)methoxy]benzyloxy]phenyl]propionate], which melting point is on record?
**A.** Its melting point is 64 to 65 °C.

**Q.** With Cc1oc(-c2ccccc2)nc1COc1cccc(COc2cncc(CC(=O)O)c2)c1 [Example 76, 2-[5-[3-[(5-methyl-2-phenyl-4-oxazolyl)methoxy]benzyloxy]-3-pyridyl]acetic acid] as the compound, how does the melting point read?
**A.** The melting point was 158 to 159 °C.

**Q.** For Cc1oc(-c2ccccc2)nc1CCc1nc(COc2cccc(CC(=O)O)c2)cs1 [Example 105, 2-[3-[[2-[2-(5-methyl-2-phenyl-4-oxazolyl)ethyl]-4-thiazolyl]methoxy]phenyl]acetic acid], which melting point is on record?
**A.** Its melting point is 153 to 154 °C.

**Q.** Which melting point does the source give for Cc1oc(-c2ccccc2)nc1COc1ccccc1COc1ccccc1CC(=O)O [Example 56, 2-[2-[2-[(5-methyl-2-phenyl-4-oxazolyl)methoxy]benzyloxy]phenyl]acetic acid] here?
**A.** The melting point was 145 to 146 °C.

**Q.** For Cc1oc(-c2ccccc2)nc1/C=C/c1ccc(COc2ccccc2CC(=O)O)cc1 [Example 95, 2-[2-[4-[(E)-2-(5-methyl-2-phenyl-4-oxazolyl)ethenyl]benzyloxy]phenyl]acetic acid], which melting point is on record?
**A.** The melting point was 189 to 190 °C.

**Q.** Which melting point does the source give for Cc1oc(-c2ccccc2)nc1COc1cccc(CSc2cccc(CC(=O)O)c2)c1 [Example 139, 2-[3-[3-[(5-methyl-2-phenyl-4-oxazolyl)methoxy]benzylthio]phenyl]acetic acid] here?
**A.** Its melting point is 81 to 82 °C.

**Q.** Which melting point does the source give for Cc1sc(-c2ccccc2)nc1COc1cc(COc2ccccc2CC(=O)O)on1 [Example 114, 2-[2-[[3-[(5-methyl-2-phenyl-4-thiazolyl)methoxy]-5-isoxazolyl]methoxy]phenyl]acetic acid] here?
**A.** Its melting point is 147 to 148 °C.

**Q.** For Cc1oc(-c2ccccc2)nc1COc1cncc(COc2ccc(CC(=O)O)cc2)c1 [Example 75, 2-[4-[5-[(5-methyl-2-phenyl-4-oxazolyl)methoxy]-3-pyridylmethoxy]phenyl]acetic acid], which melting point is on record?
**A.** Its melting point is 141 to 142 °C.

**Q.** Which melting point does the source give for CCOC(=O)CCc1cccc(OCc2ccc(OCc3nc(-c4ccccc4)oc3C)cc2)c1 [Example 2, ethyl 3-[3-[4-[(5-methyl-2-phenyl-4-oxazolyl)methoxy]benzyloxy]phenyl]propionate] here?
**A.** The melting point was 90 to 91 °C.

**Q.** With Cc1oc(-c2ccccc2)nc1COc1ccc(COc2ncccc2C=CC(=O)O)cc1 [Example 134, 3-[2-[4-[(5-methyl-2-phenyl-4-oxazolyl)methoxy]benzyloxy]-3-pyridyl]propenoic acid] as the compound, how does the melting point read?
**A.** Its melting point is 174 to 175 °C.

**Q.** Which melting point does the source give for Cc1oc(-c2ccccc2)nc1COc1ccc(COc2ccc(O)cc2CC(=O)O)cc1 [Example 16, 2-[5-hydroxy-2-[4-[(5-methyl-2-phenyl-4-oxazolyl)methoxy]benzyloxy]phenyl]acetic acid] here?
**A.** Its melting point is 194 to 195 °C.

**Q.** Which melting point does the source give for CCOc1ccc(OCc2ccc(OCc3nc(-c4ccccc4)oc3C)cc2)cc1CC(=O)OC [Example 4, methyl-2-[2-ethoxy-5-[4-[(5-methyl-2-phenyl-4-oxazolyl)methoxy]benzyloxy]phenyl]acetate] here?
**A.** Its melting point is 82 to 83 °C.

**Q.** Which melting point does the source give for CCOC(=O)C=Cc1cccnc1OCc1ccc(OCc2nc(-c3ccco3)oc2C)c(OC)c1 [Example 135, ethyl 3-[2-[4-[[2-(2-furyl)-5-methyl-4-oxazolyl]methoxy]-3-methoxybenzyloxy]-3-pyridyl]propenoate] here?
**A.** Its melting point is 85 to 87 °C.

**Q.** Which melting point does the source give for Cc1oc(-c2ccccc2)nc1COc1cccc(COc2cccc(CC(=O)O)c2)n1 [Example 64, 2-[3-[[6-[(5-methyl-2-phenyl-4-oxazolyl)methoxy]-2-pyridyl]methoxy]phenyl]acetic acid] here?
**A.** The melting point was 97 to 98 °C.

**Q.** Which melting point does the source give for CCOC(=O)CCc1ccc(OCc2ccc(OCc3nc(-c4ccccc4)oc3C)cc2)cc1 [Example 44, ethyl 3-[4-[4-[(5-methyl-2-phenyl-4-oxazolyl)methoxy]benzyloxy]phenyl]propionate] here?
**A.** Its melting point is 105 to 106 °C.

**Q.** With COC(=O)Cc1cc(OC)ccc1OCc1ccc(OCc2nc(-c3ccccc3)oc2C)cc1 [Example 23, methyl 2-[5-methoxy-2-[4-[(5-methyl-2-phenyl-4-oxazolyl)methoxy]benzyloxy]phenyl]acetate] as the compound, how does the melting point read?
**A.** The melting point was 160 to 161 °C.

**Q.** Which melting point does the source give for Cc1oc(-c2ccccc2)nc1COc1cccc(CSc2ccc(CC(=O)O)cc2Cl)c1 [Example 142, 2-[3-chloro-4-[3-[(5-methyl-2-phenyl-4-oxazolyl)methoxy]benzylthio]phenyl]acetic acid] here?
**A.** Its melting point is 150 to 151 °C.

**Q.** Which melting point does the source give for COc1ccc(COc2ccccc2CC(=O)O)cc1OCc1nc(-c2ccccc2)oc1C [Example 49, 2-[2-[4-methoxy-3-[(5-methyl-2-phenyl-4-oxazolyl)methoxy]benzyloxy]phenyl]acetic acid] here?
**A.** Its melting point is 154 to 155 °C.

**Q.** For Cc1sc(-c2ccccc2)nc1CCOc1cc(COc2ccccc2CC(=O)O)on1 [Example 117, 2-[2-[[3-[2-(5-methyl-2-phenyl-4-thiazolyl)ethoxy]-5-isoxazolyl]methoxy]phenyl]acetic acid], which melting point is on record?
**A.** Its melting point is 159 to 160 °C.

**Q.** Which melting point does the source give for CC(Nc1nc(-c2ccccc2)cs1)c1ccc(COc2ccc(CC(=O)O)cc2)cc1 (stereo not drawn) [Example 128, 4-[4-[methyl(4-phenyl-2-thiazolyl)aminomethyl]benzyloxy]phenylacetic acid] here?
**A.** The melting point was 116 to 118 °C.

**Q.** For Cc1oc(-c2ccccc2)nc1COc1ccc(COc2ccc(Br)cc2CC(=O)O)cc1 [Example 20, 2-[5-bromo-2-[4-[(5-methyl-2-phenyl-4-oxazolyl)methoxy]benzyloxy]phenyl]acetic acid], which melting point is on record?
**A.** Its melting point is 162 to 163 °C.

**Q.** For Cc1oc(-c2ccccc2)nc1CCc1noc(COc2cccc(CC(=O)O)c2)n1 [Example 109, 2-[3-[[3-[2-(5-methyl-2-phenyl-4-oxazolyl)ethyl]-1,2,4-oxadiazol-5-yl]methoxy]phenyl]acetic acid], which melting point is on record?
**A.** The melting point was 93 to 94 °C.

**Q.** Which melting point does the source give for Cc1oc(-c2ccccc2)nc1COc1ccc(COc2ccccc2CCC(=O)O)cc1 [Example 13, 3-[2-[4-[(5-methyl-2-phenyl-4-oxazolyl)methoxy]benzyloxy]phenyl]propionic acid] here?
**A.** The melting point was 98 to 99 °C.

**Q.** With CCOc1ccc(OCc2cccc(OCc3nc(-c4ccccc4)oc3C)c2)cc1CCC(=O)O [Example 33, 3-[2-ethoxy-5-[3-[(5-methyl-2-phenyl-4-oxazolyl)methoxy]benzyloxy]phenyl]propionic acid] as the compound, how does the melting point read?
**A.** Its melting point is 136 to 137 °C.

**Q.** With Cc1oc(-c2ccccc2)nc1CCOc1ccc(COc2ncccc2CC(=O)O)cc1 [Example 111, 2-[2-[4-[2-(5-methyl-2-phenyl-4-oxazolyl)ethoxy]benzyloxy]-3-pyridyl]acetic acid] as the compound, how does the melting point read?
**A.** The melting point was 134 to 135 °C.

**Q.** With COC(=O)Cc1ccc(OCc2ccc(OCc3nc(-c4ccccc4)oc3C)cc2)cc1 [Example 8, methyl 2-[4-[4-[(5-methyl-2-phenyl-4-oxazolyl)methoxy]benzyloxy]phenyl]acetate] as the compound, how does the melting point read?
**A.** Its melting point is 93 to 94 °C.

**Q.** For CCCc1oc(-c2ccccc2)nc1COc1ccc(COc2cccc(CC(=O)O)c2)cc1 [Example 87, 2-[3-[4-[(2-phenyl-5-propyl-4-oxazolyl)methoxy]benzyloxy]phenyl]acetic acid], which melting point is on record?
**A.** Its melting point is 115 to 116 °C.

**Q.** Which melting point does the source give for Cc1oc(-c2ccccc2)nc1COc1ccc(COc2ncccc2CC(=O)[O-])cc1.[K+] here?
**A.** The melting point was 157 to 159 °C.

**Q.** Which melting point does the source give for Cc1oc(-c2ccccc2)nc1COc1ccc(COc2ccc3ccccc3c2CC(=O)O)cc1 [Example 39, 2-[2-[4-[(5-methyl-2-phenyl-4-oxazolyl)methoxy]benzyloxy]-1-naphthyl]acetic acid] here?
**A.** The melting point was 187 to 188 °C.

**Q.** With Cc1oc(-c2ccccc2)nc1COc1ccc(COc2ccc(CCC(=O)O)cc2)cc1 [Example 45, 3-[4-[4-[(5-methyl-2-phenyl-4-oxazolyl)methoxy]benzyloxy]phenyl]propionic acid] as the compound, how does the melting point read?
**A.** Its melting point is 177 to 178 °C.

**Q.** Which melting point does the source give for CCOC(=O)C=Cc1c(OCc2ccc(OCc3nc(-c4ccccc4)oc3C)cc2)ccc2ccccc12 [Example 54, ethyl 3-(2-(4-((5-methyl-2-phenyl-4-oxazolyl)methoxy)benzyloxy)-1-naphthyl)-2-propenoate] here?
**A.** Its melting point is 73 to 74 °C.

**Q.** With CCOc1ccc(OCc2ccc(OCc3nc(-c4ccccc4)oc3C)cc2)cc1CC(=O)O [Example 5, 2-[2-ethoxy-5-[4-[(5-methyl-2-phenyl-4-oxazolyl)methoxy]benzyloxy]phenyl]acetic acid] as the compound, how does the melting point read?
**A.** Its melting point is 122 to 123 °C.

**Q.** For Cc1oc(-c2ccccc2)nc1COc1cccc(CSc2cccc(CCC(=O)O)c2)c1 [Example 140, 3-[3-[3-[(5-methyl-2-phenyl-4-oxazolyl)methoxy]benzylthio]phenyl]propionic acid], which melting point is on record?
**A.** Its melting point is 120 to 121 °C.

**Q.** With CCOC(=O)CCc1c(OCc2ccc(OCc3nc(-c4ccccc4)oc3C)cc2)ccc2ccccc12 [Example 46, ethyl 3-[2-[4-[(5-methyl-2-phenyl-4-oxazolyl)methoxy]benzyloxy]-1-naphthyl]propionate] as the compound, how does the melting point read?
**A.** The melting point was 86 to 87 °C.

**Q.** With Cc1oc(-c2ccccc2)nc1COc1ccc(COc2ccc3ccccc3c2CCC(=O)O)cc1 [Example 47, 3-[2-[4-[(5-methyl-2-phenyl-4-oxazolyl)methoxy]benzyloxy]-1-naphthyl]propionic acid] as the compound, how does the melting point read?
**A.** The melting point was 161 to 162 °C.

**Q.** For Cc1oc(-c2ccccc2)nc1COc1ccc(COC(=O)Cc2cccc(OCc3ccc(OCc4nc(-c5ccccc5)oc4C)cc3)c2)cc1 [Example 53, 4-[(5-methyl-2-phenyl-4-oxazolyl)methoxy]benzyl 2-[3-[4-[(5-methyl-2-phenyl-4-oxazolyl)methoxy]benzyloxy]phenyl]acetate], which melting point is on record?
**A.** The melting point was 90 to 91 °C.

**Q.** With COC(=O)Cc1cc(Br)ccc1OCc1ccc(OCc2nc(-c3ccccc3)oc2C)cc1 [Example 19, methyl 2-[5-bromo-2-[4-[(5-methyl-2-phenyl-4-oxazolyl)methoxy]benzyloxy]phenyl]acetate] as the compound, how does the melting point read?
**A.** Its melting point is 100 to 101 °C.
